Source: ChEMBL document CHEMBL4619712, “Double-component diazeniumdiolate derivatives as anti-cancer agents” (Bioorg Med Chem, 2020)

What was measured:
BT-474 = test: Anticancer activity against human BT474 cells assessed as inhibition of cell growth after 72 hrs by MTT or MTS assay; type: functional, cell-based; settings: BT-474, 72 h
Jurkat E6.1 = test: Anticancer activity against human Jurkat E6-1 cells assessed as inhibition of cell growth after 72 hrs by MTT or MTS assay; type: functional, cell-based; settings: Jurkat E6.1, 72 h
[1] = Prodrug conversion assessed as Escherichia coli GST catalyzed NO release at 1 uM measured after 5 hrs in presence of GSH by DAF-FM DA reagent based fluorescence spectrophotometric analysis; type: ADME
CCRF-CEM = test: Anticancer activity against human CCRF-CEM cells assessed as inhibition of cell growth after 72 hrs by MTT or MTS assay; type: functional, cell-based
A549 = test: Anticancer activity against human A549 cells assessed as inhibition of cell growth after 72 hrs by MTT or MTS assay; type: functional, cell-based; settings: A549, 72 h
MDA-MB-231 = test: Anticancer activity against human MDA-MB-231 cells assessed as inhibition of cell growth after 72 hrs by MTT or MTS assay; type: functional, cell-based; settings: MDA-MB-231, 72 h

O=[N+]([O-])c1ccc(O/N=[N+](\[O-])N2CCN(CCCN3CCN(/[N+]([O-])=N/Oc4ccc([N+](=O)[O-])cc4[N+](=O)[O-])CC3)CC2)c([N+](=O)[O-])c1
IC50 (BT-474): 10.8 µM | IC50 (Jurkat E6.1): 4.06 µM | fold change (FC) [1]: 2 | IC50 (CCRF-CEM): 3.73 µM | IC50 (A549): 18.8 µM | IC50 (MDA-MB-231): > 20 µM
